Test results from article PMC12113356, “Novel Anti-MRSA Peptide from Mangrove-Derived Virgibacillus chiguensis FN33 Supported by Genomics and Molecular Dynamics” (Marine Drugs, 2025).
≈ marks a conversion by molar mass, not a printed value. Where two headings read alike, the source gives them in different places. Peptide text beside a SMILES is read from it.

Experiments:
[1] = test system: trypsin; format: in vitro ADME; conditions: 32 µg/mL, trypsin 1 mg/mL, agar well diffusion read-out vs MRSA strain 2468, % of untreated sample, mean ± SD, n = 3
Description: (§1) The AMP solution was prepared in sterile purified water and adjusted to a final concentration of 32 µg/mL. To determine thermal stability, the AMP was exposed to temperatures of 30, 40, 60, 80, and 100 °C, as well as to autoclaving at 121 °C and 15 psi for 15 and 30 min. The susceptibility of the AMP to enzymatic degradation was examined by treating it with proteinase K, trypsin, and α-chymotrypsin (each at 1 mg/mL, Sigma-Aldrich, Warren, MI, USA), representing different proteolytic mechanisms. The AMP’s compatibility with surfactants was assessed by incubating it with 1% SDS, 1% CTAB, and 1% Triton X-100 (AppliChem GmbH, Darmstadt, Germany). Additionally, the effect of pH variations on AMP integrity was tested by adjusting the solution to pH 1, 4, 8, 10, and 14. The pH was neutralized to the original pH after incubation before conducting antibacterial activity tests. […] Stability data were expressed as residual activity percentages relative to the untreated sample (mean ± SD), and statistical significance was evaluated using two-way ANOVA and Tukey’s post hoc test, with a p-value < 0.05 considered significant.

[2] = test system: MRSA strain 2468; test: Stability to pH variation (activity retention by agar well diffusion); format: physicochemical, Staphylococcus aureus; conditions: 32 µg/mL, neutralized before test, agar well diffusion read-out, % of untreated sample, mean ± SD, n = 3
Description: as §1

[3] = test system: MRSA strain 2468; test: Sytox Green uptake assay (membrane permeabilization); format: cell-based, Staphylococcus aureus; conditions: 10 µM Sytox Green, ex 504/em 523 nm, over 24 h
Description: (§2) The Sytox Green uptake assay was conducted to assess membrane permeabilization associated with loss of membrane integrity. The fluorescence would be detected from a Sytox Green–DNA complex. […] Triton X-100 (0.125–2%) and an untreated sample were used as positive and negative controls, respectively. Fluorescence intensities were recorded 5 min before sample addition across all groups to ensure cell integrity prior to the experiment. […] For MRSA strain 2468, fluorescence intensity was higher than the positive control at the time of sample addition and remained concentration-dependent.
(§3) The membrane permeabilization of bacterial cells was determined by the increase in fluorescence intensity caused by the Sytox Green–DNA complex. The fluorescence intensity was observed over time for 24 h. The inset graphs show the expanded view of the fluorescence baseline before sample addition and the fluorescence intensity during the initial 60 min after sample addition. The increase in fluorescence intensity over the entire treatment period was expressed as fold changes, comparing different sample concentrations to the untreated condition of S. aureus TISTR 517 (c) and MRSA strain 2468 (d).
(§4) The Sytox Green uptake assay was performed to evaluate the disruption of cell membrane integrity induced by the AMP [67]. An overnight culture (16 h) of MRSA strain 2468 was harvested and washed three times with sterile PBS (pH 7.4) supplemented with 0.2% CAMHB as a diluent. The cell suspension was then diluted with the same diluent until the OD at 625 nm was 0.1 (1 × 10^8 CFU/mL). An aliquot (100 µL) of the diluted cells was added to each well, followed by incubation with 10 µM Sytox Green (Thermo Fisher Scientific Inc., Waltham, MA, USA) in the dark for 15 min. […] Triton X-100 (AppliChem GmbH, Darmstadt, Germany) was used as a positive control and prepared at final concentrations ranging from 0.125% to 2%. These concentrations were used to compare the level of cell membrane permeability induced by the AMP. Membrane permeability was assessed by measuring fluorescence intensity using a microplate reader (Thermo Scientific Inc., Waltham, MA, USA) at excitation and emission wavelengths of 504 nm and 523 nm, respectively, over a 24 h period following AMP addition. Significant differences in fluorescence intensity (p-value < 0.05) were analyzed using two-way ANOVA and Tukey’s post hoc test for multiple comparisons between treated and untreated conditions.

[4] = test system: S. aureus TISTR 517; test: as above; format: cell-based, Staphylococcus aureus; conditions: 10 µM Sytox Green, ex 504/em 523 nm, over 24 h
Description: as §2, §3, §4

[5] = test system: S. aureus TISTR 517; test: Broth microdilution MIC/MBC (CLSI); format: cell-based, Staphylococcus aureus; conditions: broth microdilution, CAMHB, 37 °C 24 h, triplicate
Description: The broth microdilution method was performed following the guidelines of the Clinical and Laboratory Standards Institute (CLSI). Test strains including S. aureus TISTR 517 and MRSA strains 142, 1096, and 2468 were cultured on MH agar at 37 °C for 18 h. A single colony from each strain was suspended in 0.85% NaCl until it reached a turbidity of 0.1 OD at 625 nm (1 × 10^8 CFU/mL). The bacterial cells were then diluted to 5 × 10^6 CFU/mL using cation-adjusted Mueller–Hinton broth (CAMHB). Ten microliters of the cell suspension were added to each well of a 96-well plate to make the total volume in each well 100 µL. The AMP was added to achieve final concentrations ranging from 0.125 to 64 µg/mL. Vancomycin and cefoxitin were used as positive controls, while antibiotic-free samples were used as negative controls. The plate was incubated at 37 °C for 24 h. Each experiment was performed in triplicate. The MIC was determined as the lowest concentration that inhibited visible bacterial growth. For the MBC, 100 µL from each dilution was spread on MH agar and incubated at 37 °C for 24 h. The MBC was the lowest concentration at which no bacterial colonies appeared on the agar plates.

[6] = test system: MRSA strain 2468; test: Scanning electron microscopy of treated cells; format: cell-based, Staphylococcus aureus; conditions: 1× MIC, 16 h / 18 h (figure legend), 30,000× magnification
Description: (§5) SEM was used to examine morphological alterations in the bacterial cells. […] This appearance reflected their natural cellular structure.
(§6) Figure 5 SEM images captured at 30,000× magnification. […] The non-treatment condition served as a negative control.

[7] = test system: S. aureus TISTR 517; test: Scanning electron microscopy of treated cells; format: cell-based, Staphylococcus aureus; conditions: 1× MIC, 16 h / 18 h (figure legend), 30,000× magnification
Description: as §5, §6

SMILES: CC(C)C[C@H](NC(=O)[C@H](CC(=O)O)NC(=O)[C@H](CS)NC(=O)[C@H](Cc1c[nH]cn1)NC(=O)[C@H](CS)NC(=O)[C@@H]1CCCN1C(=O)[C@@H](NC(=O)[C@H](CC(C)C)NC(=O)[C@H](CS)NC(=O)CNC(=O)[C@H](Cc1c[nH]c2ccccc12)NC(=O)[C@@H](NC(=O)[C@H](CC(=O)O)NC(=O)[C@@H](NC(=O)CNC(=O)[C@H](CS)NC(=O)CNC(=O)CNC(=O)[C@@H](N)CCC(=O)O)C(C)C)[C@@H](C)O)[C@@H](C)O)C(=O)N[C@@H](Cc1ccccc1)C(=O)N[C@@H](CS)C(=O)N[C@H](C(=O)N[C@H](C(=O)O)[C@@H](C)O)[C@@H](C)O [FN33 AMP] (H-EGGCGVDTWGCLTPCHCDLFCTT-OH)
- Antibacterial Activity Retention of FN33 AMP (%) Against MRSA Strain 2468 ([1]; 1 h): 99.60 ± 0.6%
- Antibacterial Activity Retention of FN33 AMP (%) Against MRSA Strain 2468 ([1]; 6 h): 98.82 ± 0.67%
- Antibacterial Activity Retention of FN33 AMP (%) Against MRSA Strain 2468 ([1]; 12 h): 99.04 ± 1.02%
- Antibacterial Activity Retention of FN33 AMP (%) Against MRSA Strain 2468 ([2]; pH 1, 1 h): 74.56 ± 0.69 %
- Antibacterial Activity Retention of FN33 AMP (%) Against MRSA Strain 2468 ([2]; pH 1, 6 h): 76.51 ± 0.39 %
- Antibacterial Activity Retention of FN33 AMP (%) Against MRSA Strain 2468 ([2]; pH 1, 12 h): 72.85 ± 0.22 *^,† %
- Antibacterial Activity Retention of FN33 AMP (%) Against MRSA Strain 2468 ([2]; pH 4, 1 h): 97.42 ± 0.65 %
- Antibacterial Activity Retention of FN33 AMP (%) Against MRSA Strain 2468 ([2]; pH 4, 6 h): 96.19 ± 0.21 %
- Antibacterial Activity Retention of FN33 AMP (%) Against MRSA Strain 2468 ([2]; pH 4, 12 h): 95.30 ± 0.69 *^,† %
- Antibacterial Activity Retention of FN33 AMP (%) Against MRSA Strain 2468 ([2]; pH 8, 1 h): 99.53 ± 0.41%
- Antibacterial Activity Retention of FN33 AMP (%) Against MRSA Strain 2468 ([2]; pH 8, 6 h): 98.03 ± 0.65%
- Antibacterial Activity Retention of FN33 AMP (%) Against MRSA Strain 2468 ([2]; pH 8, 12 h): 98.76 ± 0.81%
- Antibacterial Activity Retention of FN33 AMP (%) Against MRSA Strain 2468 ([2]; pH 10, 1 h): 74.63 ± 0.79 %
- Antibacterial Activity Retention of FN33 AMP (%) Against MRSA Strain 2468 ([2]; pH 10, 6 h): 73.12 ± 1.04 *^,† %
- Antibacterial Activity Retention of FN33 AMP (%) Against MRSA Strain 2468 ([2]; pH 10, 12 h): 69.46 ± 0.77 *^,† %
- Antibacterial Activity Retention of FN33 AMP (%) Against MRSA Strain 2468 ([2]; pH 14, 1 h): 68.58 ± 0.45 %
- Antibacterial Activity Retention of FN33 AMP (%) Against MRSA Strain 2468 ([2]; pH 14, 6 h): 66.80 ± 0.27 *^,† %
- Antibacterial Activity Retention of FN33 AMP (%) Against MRSA Strain 2468 ([2]; pH 14, 12 h): 65.80 ± 0.84 *^,† %
- average fluorescence increase vs untreated group ([3]; 0.25× MIC): 5.87 ± 0.72 fold
- average fluorescence increase vs untreated group ([3]; 0.5× MIC): 7.44 ± 0.77 fold
- average fluorescence increase vs untreated group ([3]; 1× MIC): 7.91 ± 0.48 fold
- average fluorescence increase vs untreated group ([3]; 2× MIC): 8.49 ± 0.25 fold
- average fluorescence increase vs untreated group ([3]; 4× MIC): 9.13 ± 0.46 fold
- average increase in fluorescence intensity vs untreated group ([4]; 0.25× MIC): 1.88 ± 0.83 fold
- average increase in fluorescence intensity vs untreated group ([4]; 0.5× MIC): 1.89 ± 0.91 fold
- average increase in fluorescence intensity vs untreated group ([4]; 1× MIC): 1.98 ± 0.92 fold
- average increase in fluorescence intensity vs untreated group ([4]; 2× MIC): 3.54 ± 1.64 fold
- average increase in fluorescence intensity vs untreated group ([4]; 4× MIC): 8.49 ± 4.31 fold
- MIC [5]: 16 µg/mL (≈ 6.61 µM)
- morphological changes under SEM [6]: greater number of completely lysed cells
- morphological changes under SEM [7]: dented and rough surface with fewer lysed cells
